Measured values published in ChEMBL document CHEMBL5532714, “Discovery of Kebanmycins with Antibacterial and Cytotoxic Activities from the Mangrove-Derived Streptomyces sp. SCSIO 40068” (J Nat Prod, 2024).
In brackets after ≈: the same amount, converted by molar mass. Structures can show the parent of a compound that is named as a salt.

How the values were obtained:
[1] = test system: Vibrio alginolyticus; assay: Antibacterial activity against Vibrio alginolyticus ATCC 13214 assessed as bacterial growth inhibition incubated for 16 hrs by broth microdilution method; assay type: functional
[2] = (§1) Cytotoxicity against human MCF7 cells assessed as cell growth inhibition; assay type: toxicity, cell-based; conditions: MCF7 cells
[3] = test system: Staphylococcus aureus; assay: Antibacterial activity against Staphylococcus aureus ATCC 29213 assessed as bacterial growth inhibition incubated for 16 hrs by broth microdilution method; assay type: functional
[4] = (§2) Cytotoxicity against human HepG2 cells assessed as cell growth inhibition; assay type: toxicity, cell-based; conditions: HepG2 cells
[5] = test system: Staphylococcus aureus; assay: Antibacterial activity against methicillin-resistant Staphylococcus aureus 991 assessed as bacterial growth inhibition incubated for 16 hrs by broth microdilution method; assay type: functional
[6] = test system: Bacillus subtilis; assay: Antibacterial activity against Bacillus subtilis 1064 assessed as bacterial growth inhibition incubated for 16 hrs by broth microdilution method; assay type: functional
[7] = test system: Staphylococcus aureus; assay: Antibacterial activity against methicillin-resistant Staphylococcus aureus 669 assessed as bacterial growth inhibition incubated for 16 hrs by broth microdilution method; assay type: functional
[8] = test system: Staphylococcus aureus; assay: Antibacterial activity against methicillin-resistant Staphylococcus aureus 1862 assessed as bacterial growth inhibition incubated for 16 hrs by broth microdilution method; assay type: functional
[9] = test system: Acinetobacter baumannii; assay: Antibacterial activity against Acinetobacter baumannii 19606 assessed as bacterial growth inhibition incubated for 16 hrs by broth microdilution method; assay type: functional
[10] = test system: Staphylococcus aureus; assay: Antibacterial activity against methicillin-resistant Staphylococcus aureus shhs-A1 assessed as bacterial growth inhibition incubated for 16 hrs by broth microdilution method; assay type: functional
[11] = test system: MCF7; assay: as §1; assay type: toxicity, cell-based; conditions: mcf7
[12] = test system: HepG2; assay: as §2; assay type: toxicity, cell-based; conditions: hepg2

For `CCC[C@@H]1Cc2cc3c(c(O)c2C(=O)O1)-c1c(c(OC)c2oc4ccc(O[C@H]5C[C@@H](O)[C@H](O[C@H]6C[C@@H](O)[C@H](O[C@H]7C[C@@H](OC)[C@H](O)[C@@H](C)O7)[C@@H](C)O6)[C@@H](C)O5)c(O)c4c(=O)c2c1O)C[C@H]3O`, the MIC [1] was greater than 64 µg/mL, the IC50 [2] was 0.12 µM and the MIC [3] was 0.125 µg/mL (≈ 0.135 µM). It also gave an IC50 [4] of 0.25 µM, an MIC [5] of 0.5 µg/mL (≈ 0.541 µM) and an MIC [6] greater than 64 µg/mL. It also gave an MIC [7] of 0.5 µg/mL (≈ 0.541 µM), an MIC [8] of 0.125 µg/mL (≈ 0.135 µM) and an MIC [9] greater than 64 µg/mL. It also gave an MIC [10] of 0.125 µg/mL (≈ 0.135 µM).
Compound `CCC[C@@H]1Cc2cc3c(c(O)c2C(=O)O1)-c1c(c(OC)c2oc4ccc(O[C@H]5C[C@@H](O)[C@H](O[C@H]6C[C@@H](O)[C@H](O[C@H]7C[C@@H](O)[C@H](O)[C@@H](C)O7)[C@@H](C)O6)[C@@H](C)O5)c(O)c4c(=O)c2c1O)[C@H](O)[C@H]3O` has an MIC [1] greater than 64 µg/mL, an IC50 [2] of 1.8 µM and an MIC [3] of 2 µg/mL (≈ 2.16 µM). The IC50 [4] was 4.4 µM, the MIC [5] was 2 µg/mL (≈ 2.16 µM) and the MIC [6] was 1 µg/mL (≈ 1.08 µM). The MIC [7] was 2 µg/mL (≈ 2.16 µM), the MIC [8] was 1 µg/mL (≈ 1.08 µM) and the MIC [9] was greater than 64 µg/mL. For the same compound, the MIC [10] was 2 µg/mL (≈ 2.16 µM).
In the case of `CCCC(=O)Cc1cc2c(c(O)c1C(=O)O)-c1cc3c(c(O)c1CC2)C(=O)c1c(O)cc(O)cc1C3=O`, the MIC [1] is reported as greater than 64 µg/mL, the Activity [11] is reported as “Non-Toxic” and the MIC [3] is reported as 32 µg/mL (≈ 63.7 µM). For the same compound, the Activity [12] was “Non-Toxic”, the MIC [5] was 16 µg/mL (≈ 31.8 µM) and the MIC [6] was greater than 64 µg/mL. For the same compound, the MIC [7] was 16 µg/mL (≈ 31.8 µM), the MIC [8] was 16 µg/mL (≈ 31.8 µM) and the MIC [9] was greater than 64 µg/mL. It also gave an MIC [10] of 16 µg/mL (≈ 31.8 µM).
Work on `CCC[C@@H]1Cc2cc3c(c(O)c2C(=O)O1)-c1c(c(OC)c2oc4ccc(O[C@H]5C[C@@H](O)[C@H](O)[C@@H](C)O5)c(O)c4c(=O)c2c1O)[C@H](O)[C@H]3O` yielded an MIC [1] greater than 64 µg/mL, an IC50 [2] of 0.76 µM and an MIC [3] of 0.5 µg/mL (≈ 0.75 µM). The IC50 [4] was 31 µM, the MIC [5] was 2 µg/mL (≈ 3 µM) and the MIC [6] was 4 µg/mL (≈ 6 µM). For the same compound, the MIC [7] was 2 µg/mL (≈ 3 µM), the MIC [8] was 1 µg/mL (≈ 1.5 µM) and the MIC [9] was greater than 64 µg/mL. It also gave an MIC [10] of 0.5 µg/mL (≈ 0.75 µM).
In the case of `CCC[C@@H]1Cc2cc3c(c(O)c2C(=O)O1)-c1c(c(OC)c2oc4ccc(O)c(O)c4c(=O)c2c1O)[C@H](O)[C@H]3O`, the MIC [1] is reported as 32 µg/mL (≈ 59.6 µM), the IC50 [2] is reported as 0.46 µM and the MIC [3] is reported as 8 µg/mL (≈ 14.9 µM). It also gave an IC50 [4] of 13 µM, an MIC [5] of 8 µg/mL (≈ 14.9 µM) and an MIC [6] of 16 µg/mL (≈ 29.8 µM). The MIC [7] was 8 µg/mL (≈ 14.9 µM), the MIC [8] was 4 µg/mL (≈ 7.46 µM) and the MIC [9] was 64 µg/mL (≈ 119 µM). For the same compound, the MIC [10] was 8 µg/mL (≈ 14.9 µM).
Work on `CCC[C@@H]1Cc2cc3c(c(O)c2C(=O)O1)-c1c(c(OC)c2oc4ccc(O[C@H]5C[C@@H](O)[C@H](O[C@H]6C[C@@H](O)[C@H](O[C@H]7C[C@@H](OC)[C@H](O)[C@@H](C)O7)[C@@H](C)O6)[C@@H](C)O5)c(O)c4c(=O)c2c1O)[C@H](O)[C@H]3O` yielded an MIC [1] greater than 64 µg/mL, an IC50 [2] of 4.1 µM and an MIC [3] of 2 µg/mL (≈ 2.13 µM). It also gave an IC50 [4] of 7.9 µM, an MIC [5] of 1 µg/mL (≈ 1.06 µM) and an MIC [6] of 0.125 µg/mL (≈ 0.133 µM). The MIC [7] was 2 µg/mL (≈ 2.13 µM), the MIC [8] was 1 µg/mL (≈ 1.06 µM) and the MIC [9] was greater than 64 µg/mL. The MIC [10] was 2 µg/mL (≈ 2.13 µM).
`O=C(O)c1cn(C2CC2)c2cc(N3CCNCC3)c(F)cc2c1=O` [CIPROFLOXACIN] showed an MIC [1] of 0.125 µg/mL (≈ 0.377 µM) and an MIC [9] of 0.125 µg/mL (≈ 0.377 µM).
For `COc1cccc2c1C(=O)c1c(O)c3c(c(O)c1C2=O)C[C@@](O)(C(=O)CO)C[C@@H]3O[C@H]1C[C@H](N)[C@H](O)[C@H](C)O1` [DOXORUBICIN HYDROCHLORIDE], the IC50 [4] was 3.1 µM.
In the case of `CN[C@H](CC(C)C)C(=O)N[C@H]1C(=O)N[C@@H](CC(N)=O)C(=O)N[C@H]2C(=O)N[C@H]3C(=O)N[C@H](C(=O)N[C@H](C(=O)O)c4cc(O)cc(O)c4-c4cc3ccc4O)[C@H](O)c3ccc(c(Cl)c3)Oc3cc2cc(c3O[C@@H]2O[C@H](CO)[C@@H](O)[C@H](O)[C@H]2O[C@H]2C[C@](C)(N)[C@H](O)[C@H](C)O2)Oc2ccc(cc2Cl)[C@H]1O` [VANCOMYCIN], the MIC [6] is reported as 0.25 µg/mL (≈ 0.173 µM).
